Laboratory results from patent US11311593B2, “Root extracts from plants of the Morus genus and uses of same” (PLANT ADVANCED TECHNOLOGIES PAT, priority 2017, dated 2022).
Entries after “also recorded” stand apart in the source; their conditions may differ.

Columns and labels:
hyaluronidase = test: Target Binding affinity test for hyaluronidase; details: ligands in non-stimulated M. alba root extract; moracenin B = reference ligand
Experimental: A root extract of Morus Alba was prepared in accordance with the protocol described in Example 2.1. The Target Binding® method used was that of Example 2.3 which is described in patent application FR 1 670 545. The experimental protocol was as follows: The target, a 5 mg/mL solution of hyaluronidase, was prepared by dissolving powdered lyophilized enzyme in 50 mM sodium phosphate, with a pH of 7.0. The extract corresponded to the supernatant obtained in accordance with Example 2.1. It could optionally be centrifuged once again before use, at 21000 g for 15 min, in order to eliminate the solid particles before use. A reference sample was also prepared by diluting the sample 10-fold in a solution of water and a quarter of the volume of acetonitrile.
1. Preconditioning step—Wells with a filtering membrane were preconditioned with a volume of 500 μL of a solution of 50 mM sodium phosphate, at a pH of 7.0 which was passed through the membrane by centrifuging at 14000 g for 60 seconds.
2. Binding step—The hyaluronidase preparation (5 mg/mL) was mixed with 7.5 μL of the root extract for 5 min in a plastic Eppendorf tube.
3. Washing step—the mixture of the enzyme and the root extract was deposited in a well that had been preconditioned in the preconditioning step, then centrifuged at 14000 g until most of the solvent had been eliminated. The enzyme-ligand complexes remained on the surface of the membrane of the filter then were re-suspended in a volume of 100 μL of the same solution of 50 mM sodium phosphate at a pH of 7.0, and centrifuged at 14000 g until the solvent had been eliminated. This procedure was repeated three times and eliminated all of the compounds that were not bound to the enzyme. 4. Separation step—The enzyme-ligand complexes retained in the filter were re-suspended in a volume of 10 μL of ultra-pure water then mixed with a volume of 40 μL of acetonitrile in order to denature and precipitate the enzyme and at the same time to liberate the ligands. The mixture was centrifuged at 21000 g for 10 min in order to separate the precipitate from the supernatant. 5. Analysis step—Said supernatant was analyzed by liquid phase chromatography coupled to a mass spectrometer, also known by the acronym UPLC-MS. The reference sample was also analyzed in the same manner, using the same analytical conditions.
The UPLC-MS analysis was carried out in accordance with the protocol described in Example 1.

fungal tyrosinase = test: Target Binding affinity test for tyrosinase (UPLC-MS of bound ligands); details: for Relative affinity (RA) for tyrosinase: ligands in non-stimulated M. alba root extract, moracenin B = reference ligand
Description: It is based on the principle of bringing the ligands and the target into contact in the liquid phase so that the ligands that have the greatest affinity with the target bind to it, elimination of the ligands that are not fixed, separation of the complexes in order to recover the ligands which have been fixed, then quantification of the latter. In a first step of the method, the extract and the target are mixed. The compounds of the extract compete for access to the binding sites of the target. The strongest compounds displace the weakest and are retained more effectively by the target. […] A reference sample was also prepared by diluting the sample to be analyzed 10-fold in a solution of water and a quarter of the volume of acetonitrile. […] Pre-conditioning step-Wells with a filtering membrane were pre-conditioned with a volume of 500 μL of an 85% solution of ammonium acetate and 15% of ethanol which was passed through the membrane by centrifuging at 14000 g for 60 seconds. 2. […] 3. Washing step-The mixture of the enzyme and the sample to be analyzed was deposited in a well that had been pre-conditioned in the pre-conditioning step, then centrifuged at 14000 g until most of the solvent had been eliminated. […] This procedure was repeated three times and eliminated all of the compounds that were not bound to the enzyme. 4. Separation step-The enzyme-ligand complexes retained in the filter were re-suspended in a volume of 10 μL of ultra-pure water, then mixed with a volume of 40 μL of acetonitrile in order to denature and precipitate the enzyme and, at the same time, to liberate the ligands. The mixture was centrifuged at 21000 g for 10 min in order to separate the precipitate from the supernatant. 5. Analysis step-Said supernatant was analyzed by liquid phase chromatography coupled to a mass spectrometer, also known by the acronym UPLC-MS. The reference sample was also analyzed in the same manner, using the same analytical conditions. The UPLC-MS analysis was carried out in accordance with the protocol described in Example 1. The chromatograms obtained are presented in FIGS. 3A and 3B and represent a signal intensity as a function of retention time in a column. […] Each peak is associated with one of the ligands present in the analyzed extract. The quantity associated with each ligand corresponds to the area of the peak. […] For each ligand, an affinity ratio, RACEi, was calculated as follows: [formula] where: NF is a normalization factor; […] the intensity of the analytical signal for the ligand CEi in the reference sample; ISeq,REF is the intensity of the analytical signal for the reference ligand REF (here, moracenin B) in the reference sample; […] the intensity of the analytical signal for the ligand CEi in the treated solution (the sample to be analyzed after steps 2 to 4 for binding and separation of the ligands) for the detached ligands; ISTB,REF is the intensity of the analytical signal for the reference ligand REF (here, moracenin B) in the treated solution (the sample to be analyzed after steps 2 to 4 for binding and separation of the ligands) for the detached ligands; RA, CEi is the relative affinity ratio (RA), representing an affinity of the ligand CEi for the target. The value of the ratio increases with affinity.

| Structure (SMILES) | Relative affinity (RA) for hyaluronidase (hyaluronidase) | Relative affinity (RA) for tyrosinase (fungal tyrosinase) | affinity for tyrosinase compared with the other compounds of the extract (in words) (fungal tyrosinase; peak areas of FIG. 3B / relative affinities) |
| --- | --- | --- | --- |
| CC(C)=CCc1c(O)ccc(C(=O)[C@@H]2CC(C)=C[C@H](c3c(O)cc(O)c4c(=O)c(CC=C(C)C)c(-c5ccc(O)cc5O)oc34)[C@H]2c2ccc(O)cc2O)c1O [Moracenin A, moracenin A] | 1.9 | 5.1 | – |
| CC(C)=CCc1c(-c2ccc(O)cc2O)oc2c([C@H]3C=C(C)C[C@H](C(=O)c4ccc(O)cc4O)[C@@H]3c3ccc(O)cc3O)c(O)cc(O)c2c1=O [Moracenin B, moracenin B] | 1.0 | 1.0 | – |
| CC(C)=CCc1c(O)ccc(C(=O)C2C(c3ccc(O)cc3O)CC3(C)CC2c2c(O)cc(-c4cc5ccc(O)cc5o4)cc2O3)c1O (stereo not shown) [Wittiorumin F, wittiorumin F] | 2.1 | 15.5 | greater affinity; also recorded: higher affinity |
